Laboratory results published in ChEMBL document CHEMBL1201862, “PubChem BioAssay data set” (2004).
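Values below derive from 48-hour exposures of cells grown in 96-well plates, with endpoints linearly interpolated between the two concentrations bracketing the appropriate inhibition level. Here, GI50 denotes the concentration required for 50% inhibition of growth.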 Active and inactive are the calls of the source. Rule as the data show it: active = GI50 up to about 1.1 µM and inactive = higher.

Tests used:
Assay in all cases: NCI anticancer screen, dose series, 48 h
DMS-114 = test system: DMS-114
KM-20L2 = test system: KM-20L2
XF498 = test system: XF498
HOP-18 = test system: HOP-18
DMS-273 = test system: DMS-273
EKVX = test system: EKVX
A498 = test system: A498
M19-MEL = test system: M19-MEL
K562 = test system: K562
SNB-78 = test system: SNB-78
NCI/ADR-RES = test system: NCI/ADR-RES
MCF7 = test system: MCF7
SK-MEL-2 = test system: SK-MEL-2
A549 = test system: A549
786-0 = test system: 786-0
TK-10 = test system: TK-10
ACHN = test system: ACHN
SR = test system: SR
LXFL 529 = test system: LXFL 529
M14 = test system: M14

| Compound | GI50 (DMS-114) | GI50 (KM-20L2) | GI50 (XF498) | GI50 (HOP-18) | GI50 (DMS-273) | GI50 (EKVX) | GI50 (A498) | GI50 (M19-MEL) | GI50 (K562) | GI50 (SNB-78) | GI50 (NCI/ADR-RES) | GI50 (MCF7) | GI50 (SK-MEL-2) | GI50 (A549) | GI50 (786-0) | GI50 (TK-10) | GI50 (ACHN) | GI50 (SR) | GI50 (LXFL 529) | GI50 (M14) |
| --- | --- | --- | --- | --- | --- | --- | --- | --- | --- | --- | --- | --- | --- | --- | --- | --- | --- | --- | --- | --- |
| O=NN(CCCl)C(=O)NC1CCSc2ccccc21 (centres undefined) | 47.2 µM (inactive) | > 100 µM (inactive) | > 100 µM (inactive) | > 69 µM (inactive) | > 100 µM (inactive) | 28.3 µM (inactive) | > 100 µM (inactive) | > 100 µM (inactive) | > 62.4 µM (inactive) | > 100 µM (inactive) | > 100 µM (inactive) | > 100 µM (inactive) | > 100 µM (inactive) | > 100 µM (inactive) | – | – | – | – | – | – |
| [N-]=[N+]=CC(=O)OCC(N)C(=O)O (centres undefined) | 1.59 µM (inactive) | 0.157 µM (active) | 5.96 µM (inactive) | 625 µM (inactive) | 0.245 µM (active) | 0.413 µM (active) | 0.764 µM (active) | 1.41 µM (inactive) | 0.286 µM (active) | 586 µM (inactive) | 2.95 µM (inactive) | 0.217 µM (active) | 3.28 µM (inactive) | 0.557 µM (active) | – | – | – | – | – | – |
| O=C(Nc1cccc(C(F)(F)F)c1)C(=O)C(C(=O)c1ccc(Cl)c(Cl)c1)C1OC(=O)c2ccccc21 (centres undefined) | 21.6 µM (inactive) | 39.4 µM (inactive) | > 100 µM (inactive) | 17.5 µM (inactive) | 33.9 µM (inactive) | 79.1 µM (inactive) | 21.4 µM (inactive) | 18.8 µM (inactive) | 44 µM (inactive) | 32.4 µM (inactive) | – | – | – | 44.2 µM (inactive) | 37.7 µM (inactive) | > 100 µM (inactive) | 53.2 µM (inactive) | 15.4 µM (inactive) | 28.7 µM (inactive) | 81.1 µM (inactive) |
| CCCCCC/C(CC(=O)CCC(=O)NCCc1ccccc1)=N\NC(=O)c1ccc2ccccc2c1O | – | 35.1 µM (inactive) | 63 µM (inactive) | 12.1 µM (inactive) | – | 43.2 µM (inactive) | – | 23.3 µM (inactive) | – | 67.3 µM (inactive) | – | – | 20 µM (inactive) | 48.2 µM (inactive) | 31.6 µM (inactive) | 64.7 µM (inactive) | 28.2 µM (inactive) | – | 42.1 µM (inactive) | 33.3 µM (inactive) |
| Nc1ccc2[nH]c3c(-c4ccccc4)nccc3c2c1 | 37.6 µM (inactive) | 48.3 µM (inactive) | 61.2 µM (inactive) | > 100 µM (inactive) | 53.3 µM (inactive) | > 100 µM (inactive) | 36.5 µM (inactive) | 64.6 µM (inactive) | 24.4 µM (inactive) | > 55 µM (inactive) | 24 µM (inactive) | > 45.1 µM (inactive) | > 100 µM (inactive) | 48.9 µM (inactive) | – | – | – | – | – | – |
| CCCCC(C)C1CCC2(C)C=CC(=O)C(C)=C2C1O (centres undefined) | > 100 µM (inactive) | > 100 µM (inactive) | > 100 µM (inactive) | > 100 µM (inactive) | > 100 µM (inactive) | > 100 µM (inactive) | > 100 µM (inactive) | > 100 µM (inactive) | > 100 µM (inactive) | > 100 µM (inactive) | > 100 µM (inactive) | > 100 µM (inactive) | > 100 µM (inactive) | > 100 µM (inactive) | – | – | – | – | – | – |
| O=C(O)c1cc2c3c(c1)[C@H]1C=CC[C@H]1CN3CC1CC=CC21 (some centres undefined) | > 100 µM (inactive) | > 100 µM (inactive) | > 100 µM (inactive) | > 100 µM (inactive) | > 100 µM (inactive) | > 100 µM (inactive) | > 100 µM (inactive) | > 100 µM (inactive) | > 100 µM (inactive) | > 100 µM (inactive) | – | – | > 100 µM (inactive) | > 100 µM (inactive) | > 100 µM (inactive) | > 100 µM (inactive) | > 100 µM (inactive) | > 100 µM (inactive) | > 100 µM (inactive) | > 100 µM (inactive) |
| COc1ccc(C23C(=O)c4ccccc4N2O[C@H]2C(=O)N(c4ccccc4)C(=O)[C@H]23)cc1 (some centres undefined) | > 100 µM (inactive) | > 100 µM (inactive) | > 100 µM (inactive) | > 100 µM (inactive) | > 100 µM (inactive) | > 100 µM (inactive) | > 100 µM (inactive) | > 100 µM (inactive) | > 100 µM (inactive) | > 100 µM (inactive) | – | – | > 100 µM (inactive) | > 100 µM (inactive) | > 100 µM (inactive) | > 100 µM (inactive) | > 100 µM (inactive) | – | > 100 µM (inactive) | > 100 µM (inactive) |
| CCCCCC1CC(C(C)=O)CN1c1ccc(F)cc1 (centres undefined) | 20.3 µM (inactive) | 35.3 µM (inactive) | 21.1 µM (inactive) | 13.1 µM (inactive) | 35.6 µM (inactive) | 50.6 µM (inactive) | 77.6 µM (inactive) | 39.7 µM (inactive) | – | 36.4 µM (inactive) | – | – | 38.9 µM (inactive) | 51.4 µM (inactive) | – | 98.6 µM (inactive) | 26.9 µM (inactive) | > 10 µM (inactive) | 32.1 µM (inactive) | 35 µM (inactive) |
| CC1C(O)C2(Oc3cc4c(c5c3[C@@H](CC5O)[C@H]2C)CCC2Cc3nc5c(nc3C[C@@]42C)CC2CCC3C4=C[C@H]6O[C@@]7(O[C@@](C)(CO)C[C@@H]7O)C(C)[C@@]6(O)[C@]4(C)[C@@H](O)CC3[C@]2(C)C5)OC1(C)C (some centres undefined) | 0.104 µM (active) | 0.0975 µM (active) | 0.115 µM (active) | 2.01 µM (inactive) | 0.0304 µM (active) | 0.123 µM (active) | 0.0652 µM (active) | 0.863 µM (active) | 0.098 µM (active) | 0.0494 µM (active) | 2.9 µM (inactive) | 0.117 µM (active) | 0.114 µM (active) | 0.0581 µM (active) | – | – | – | – | – | – |
| C=C1C(=O)C[C@@]23CCC[C@@]12CC(O)C3 (some centres undefined) | 16.7 µM (inactive) | 21.8 µM (inactive) | 22.6 µM (inactive) | 6.79 µM (inactive) | 17.3 µM (inactive) | 27.3 µM (inactive) | 15 µM (inactive) | 24.8 µM (inactive) | 24.5 µM (inactive) | 28.2 µM (inactive) | 13.4 µM (inactive) | 16.7 µM (inactive) | 24.6 µM (inactive) | 30.3 µM (inactive) | – | – | – | – | – | – |
| Nc1ncnc2c1ncn2[C@@H]1O[C@H](COP(=O)(O)O)[C@@H](O)[C@@H]1O | > 50 µM (inactive) | > 50 µM (inactive) | > 34.4 µM (inactive) | > 50 µM (inactive) | > 50 µM (inactive) | > 50 µM (inactive) | > 50 µM (inactive) | > 50 µM (inactive) | > 50 µM (inactive) | > 50 µM (inactive) | > 24.5 µM (inactive) | > 50 µM (inactive) | > 50 µM (inactive) | > 50 µM (inactive) | – | – | – | – | – | – |
